# Data taken from the METLIN SMRT retention time set (Domingo-Almenara et al. 2019).
# Assay: gradient 5% acetonitrile 3 min, to 50% in 2 min, to 85% in 15 min, held 3 min, 100 µL/min
# Conditions: column: Zorbax Extend-C18 2.1 x 50 mm; eluents: water / acetonitrile, 0.1% formic acid
# How it was run: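 Standards, all pure, were combined into mixtures of ~100 molecules and run at 100 μL/min on a Zorbax Extend-C18 column (2.1 × 50 mm, 1.8 μm) with water and acetonitrile, each containing 0.1% formic acid. A coupled quadrupole time-of-flight mass spectrometer operated in positive and negative ionization mode. Retention time values come from computationally picked adduct peaks, each inspected manually.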
row,SMILES,RP-LC retention time
1,Cc1cccc2nnc(N3CCN(C(=O)c4cccnc4)CC3)n12,515 s
2,Cc1cc(C(=O)Nc2ccc(-c3ccn[nH]3)cc2)c(C)o1,716 s
3,Cc1ccc2nc(-c3ccc(NC(=O)c4cc5cccnc5n(C)c4=O)cc3)sc2c1,864 s
4,Cc1nc(C)c(C(=O)Nc2cc(F)ccc2F)s1,783 s
5,CCc1ccc(NC(=O)N2CCC3(CC2)NC(=O)c2ccc(Cl)cc2N3CC)cc1,968 s
6,COc1ccc(C2C(=O)N(C3CCCCC3)CC(=O)N2Cc2ccc3c(c2)OCO3)cc1 (configuration not stated),893 s
7,CCCCN(Cc1ccco1)C(=O)C1CCCN(c2ncnc3c2nc2n3CCCCC2)C1 (configuration not stated),949 s
8,Cc1ccc(CNC(=O)c2ccc3c(=O)n(-c4ccccc4)c(N4CCCC4)nc3c2)o1,830 s
9,O=C([C@@H]1C[C@H](F)CN1S(=O)(=O)c1ccc(Cl)s1)N1CCc2ccccc2C1,955 s
10,COC(=O)c1ccc2c(=O)n(-c3ccc(Cl)cc3)c(N3CCN(C4CCCCC4)CC3)nc2c1,754 s
11,OC(CN1CCN(c2ccccn2)CC1)c1ccc2c(c1)OCO2 (configuration not stated),539 s
12,Cc1ccccc1CNS(=O)(=O)c1cn(CC(C)C)c2ncccc12,763 s
13,Cc1cccc(Oc2nccnc2Sc2ccccc2C(=O)N2CCN(c3ccccn3)CC2)c1,761 s
14,CN(C)S(=O)(=O)N1CC(c2noc(-c3cccnc3)n2)C2(CCOCC2)C1 (configuration not stated),713 s
15,O=C(NCC(c1cccs1)N1CCc2ccccc21)c1ccco1 (configuration not stated),894 s
16,CCn1nccc1C(=O)Nc1c(-c2cccc(F)c2)nc2sc(N3CCCCC3)nn12,964 s
17,COc1cccc(CNC(=O)N2CCN(c3cnn4c(C)nnc4c3)CC2)c1,658 s
18,Cn1c(C(N)=O)c(N2CCCC2=O)c2cc(F)ccc21,669 s
19,CCn1c(CCC(=O)NCc2ccc(F)c(Cl)c2)nc2c(C)cccc2c1=O,916 s
20,Cc1ccc(N2C(=O)C3N=NN(Cc4nc(-c5ccccc5C)no4)C3C2=O)cc1C (configuration not stated),1060 s
21,O=C(Nc1cccc2ccc(-n3ccnc3)nc12)c1ccc2c(c1)OCO2,620 s
22,O=C(CN1C(=O)C(C(=O)N2CCCCC2)Sc2ccccc21)NCCC1=CCCCC1 (configuration not stated),1120 s

row,SMILES,RP-LC retention time
1,O=C(O)c1cc(N2CCN(CC(=O)N3CCCCCC3)CC2)ccc1NC(=O)C1CCC1,636 s
2,COc1ccc(Cl)cc1NC(=O)NCCc1ccc(N(C)C)cc1,637 s
3,CCc1ccccc1NC(=O)NCC(c1cccnc1)c1cn(C)c2ccccc12 (configuration not stated),711 s
4,O=C(Cn1ccc2ccc(N3CCOCC3)nc21)NCc1ccc(C(F)(F)F)cc1,958 s
5,COCCNC(=O)N1c2ccccc2NC2=C(C(=O)CC(C)(C)C2)C1c1ccccc1OC (configuration not stated),725 s
6,O=C(CC1CCCC1)N1CCN(c2nc(CN3CCCCC3)cs2)CC1,642 s
7,O=C(NC1CC1)C1CCCN(c2nc3ncn(CC(=O)N4CCc5ccccc5C4)c(=O)c3s2)C1 (configuration not stated),689 s
8,COc1ccc(-c2cc3n(n2)CCCN(C(C)=O)C3)cc1,656 s
9,CCOc1ccc(C(=O)NCCc2c[nH]c3ccc(C)cc23)cc1OCC,910 s
10,Cc1ccc(C)c(S(=O)(=O)Nc2ccc(N3CCN(c4ccccn4)CC3)c(C(=O)O)c2)c1,660 s
11,O=C(NCC1CN(CC2CC2)CC12CCCCC2)Nc1cc(F)cc(F)c1 (configuration not stated),760 s
12,CCCCOc1cc(CC2CNC(=O)N2)ccc1OC (configuration not stated),798 s
13,COc1ccc(-c2nc(Cn3cnc4nc5c(cc4c3=O)CC(C)CC5)c(C)o2)cc1OC (configuration not stated),870 s
14,CSc1ccc(-c2nc3cnccn3c2Nc2cccc(C(=O)N3CCOCC3)c2)cc1,704 s
15,COc1ccc(N2CCN(c3cc(SCC(=O)Nc4ccc(C)cc4F)ncn3)CC2)cc1,1110 s
16,CC(Cc1ccco1)NC(=O)C(C)n1c2ccccc2c2cnn(C)c(=O)c21 (configuration not stated),603 s
17,Cc1ccc(N2N=NC3C(=O)N(c4ccccc4)C(=O)C32)cc1C (configuration not stated),1010 s
18,O=C(CCC1CCCN(S(=O)(=O)c2ccccc2F)C1)NCCc1ccccc1 (configuration not stated),952 s
19,O=c1n(Cc2cccc(F)c2)nc2ccc(S(=O)(=O)N3CCOCC3)cn12,800 s
20,CCCN1CCN(C(=O)C2=NN(c3ccc(Cl)cc3)c3ncccc3S2(=O)=O)CC1,676 s
21,O=C(NC1CC1)c1ccc(OCC2CCN(C(=O)c3ccc(F)cc3Cl)CC2)cc1,837 s
22,COc1ccc(C(CC(=O)NCCN2CCN(C)CC2)N2Cc3ccccc3C2=O)cc1OC (configuration not stated),579 s

row,SMILES,RP-LC retention time
1,Cc1nc(-c2nnn(-c3ccc(F)cc3)c2C)no1,789 s
2,COCCC1CCN(C(=O)Cc2c(C)noc2C)CC1,636 s
3,CCc1ccc(-n2ncc3c(=O)n(Cc4nc(-c5ccc(SC)cc5)no4)cnc32)cc1,1210 s
4,CC1=CS/C(=C(/C#N)C(=O)N2CCOCC2)N1c1ccccc1,635 s
5,Cn1cnnc1C1CCCCN1C(=O)c1cc(-c2cccs2)[nH]n1 (configuration not stated),637 s
6,COCC1(O)CCOC2(CCN(C(=O)c3cccs3)CC2)C1 (configuration not stated),621 s
7,COc1ccc(-c2ccnc3nc(-c4cccs4)nn23)cc1OC,832 s
8,CCCCN(C)C(=O)c1sc(-c2cn(C(C)C)c3ncccc23)nc1C,1010 s
9,O=c1c2c(CO)c(-c3ccccc3)nn2ccn1Cc1ccc(Br)cc1,1010 s
10,CCC(=O)Nc1sc2c(c1C(=O)Nc1ccccc1)CCCC2,704 s
11,CCOc1ccc(S(=O)(=O)NCc2ccc3c(c2)CCN3C(=O)c2ccccc2)cc1,953 s
12,Cc1cc(Nc2nc3ccncc3n(C(C)C)c2=O)ccc1F,679 s
13,CC(C(=O)NCCCN1CCC(N2CCCCC2)CC1)n1c(=O)c(C(F)(F)F)nc2ccccc21 (configuration not stated),595 s
14,Cc1cc2nn(CC(=O)N3CCC(C)CC3)c(=O)n2c(Nc2ccc(F)cc2)n1,990 s
15,C=CCn1c(SCC(=O)c2cc(C)n(CCOC)c2C)nc2sc(C)c(C)c2c1=O,1140 s
16,Cc1nc2cc(-c3noc(-c4ccsc4)n3)ccc2o1,977 s
17,CCNC(=O)C1CCN(c2nc3ccc(-c4cccs4)nc3s2)CC1,815 s
18,COc1cc(NC(=O)C2CCCN(c3cnc4nccnc4c3)C2)cc(OC)c1 (configuration not stated),712 s
19,CC1CCCN(c2ccc(NC(=O)c3cccs3)cc2C(=O)O)C1 (configuration not stated),666 s
20,COC(=O)c1ccc(CN2CCN(c3cnn4c(C5CC5)nnc4c3)CC2)cc1,571 s
21,Cc1cc(C)n(CCN(C(=O)c2ccc([N+](=O)[O-])s2)c2nc3ccccc3s2)n1,1020 s
22,COc1ccc(S(=O)(=O)NCCc2cn(C)c3ncccc23)cc1Cl,760 s

row,SMILES,RP-LC retention time
1,Cc1nc(OCC(=O)Nc2cccc(C)c2C)c2ccccc2n1,737 s
2,CCN1C(=O)c2cccnc2Sc2cc(CNC(=O)c3cccn3C)ccc21,747 s
3,Cc1ccc(-c2nc(C(=O)N3CCN(c4ccccc4)CC3)cs2)n1C,1080 s
4,O=C(Nc1ccc(Cl)c(Cl)c1)N1CC(c2nc(-c3cnccn3)no2)C1,746 s
5,COc1ccccc1NC(=O)N1CCC2(CC1)NC(=O)c1ccc(Cl)cc1N2C,806 s
6,Nc1ncnc(N2CCN(C(c3ccccc3)c3ccccc3)CC2)c1[N+](=O)[O-],698 s
7,Cc1ccc(S(=O)(=O)N2CCC(N3CC(F)(F)C[C@H]3CN(C)C)CC2)c(C)c1,715 s
8,O=C(CC1CCCN(c2cnn(CC3CC3)c(=O)c2)C1)N1CCSCC1 (configuration not stated),740 s
9,CC(=O)N1CCc2cc(N3CC(C(=O)NC(C)c4ccc(C)cc4C)CC3=O)ccc21 (configuration not stated),772 s
10,O=C(NCCc1ccc(Cl)cc1)C1CCCN(c2ncnc3c2oc2ccccc23)C1 (configuration not stated),855 s
11,CCS(=O)(=O)c1nc2ccc(NS(=O)(=O)c3ccc(OC)cc3)cc2s1,833 s
12,O=c1c2ccccc2n(Cc2nc(-c3ccc(F)cc3)no2)c(=O)n1Cc1ccco1,1050 s
13,COc1ccc(-c2nnc(COc3ccc(NC(=O)c4n[nH]c5c4CCCC5)cc3)o2)cc1,907 s
14,O=C1c2ccccc2C(=O)c2c(O)c(NCCNCCO)cc(O)c21,653 s
15,CCn1c(CN(c2ccc(F)cc2)S(C)(=O)=O)nnc1SCc1nnc(-c2ccccc2)o1,760 s
16,CCN(CC)c1nc2cc(C(=O)OC)ccc2c(=O)n1Cc1ccc(C)cc1,1310 s
17,Cc1ccc(S(=O)(=O)Cc2ccc(C(=O)N3CCN(c4ccccn4)CC3)o2)cc1,606 s
18,COc1ccc(CNC2=NCCNC23CCN(S(=O)(=O)c2ccc(C)c(C)c2)CC3)cc1,775 s
19,Cc1ccc(NC(=O)Cn2c(C)nc(C)c(C)c2=O)cc1C,690 s
20,CCCN1C(=O)COc2ccc(-c3noc(C(C)Oc4cccc(Cl)c4)n3)cc21 (configuration not stated),1260 s
21,CCN1c2cc(Cl)ccc2C(=O)NC12CCN(C(=O)NCc1ccc(F)cc1)CC2,840 s
